# Key:
# [1] = system: OHS osteosarcoma xenografts; assay: Tissue distribution of 223Ra in Caelyx liposomes, nude mice with OHS osteosarcoma xenografts (Example 2); assay type: in vivo
# Method: 10 nude mice were prepared with OHS osteosarcoma xenografts. Each mouse was trated subcutaneously with one dose of 375 kBq/kg of 223Ra encapsulated in Caelyx lipsomes as prepared in Example 1.
# After 1 hour, one day and four days, three, three and four animals were sacrificed respectively and the tissue distribution of radioactive material was measured.
# The distribution of radionuclide was also compared with a control in which the radium was administered as a salt in a solution of liposomes but not encapsulated thereby.
# [2] = Main biodistribution and blood clearance study with four days pre-treatment; liposomal vs free 223Ra (Example 4); assay type: in vivo, Balb/C mice; settings: i.v.
# Method: In the main study, the mice were divided into four different groups. Each group consisted of 6-7 animals of both sexes. […] One mouse in each of groups two, three and four, were left untreated and were used to measure possible reuptake of the product from faeces or the bedding.
# Blood was withdrawn, the mice were euthanised and the radioactivity measurements were performed in the same manner as in Example 3, 1 hour, 24 hours, 6 days and 14 days post injection for the respective groups of mice.
# To study the difference between liposomally encapsulated and free ^223Ra, a group of mice was injected intravenously with dissolved ^223RaCl.
smiles,measurement,setting,value
"[Cl][223Ra][Cl] [free ^223Ra, ^223RaCl]",clearance from blood,[1],rapid clearance
same,half-life (T1/2) circulating in the blood,[2],less than 1 hours

# Reference: patent US20080193374A1, “Liposomes Enclosing a Radionuclide and a Cytotoxic Agent for Combination Therapy” (priority 2004, published 2008)
